Several values for one entry are separate records, joined by “and”; a condition that tells them apart may be missing. Equal values may be shown once.
What was measured:
[1] = Subacute toxicity, 14 days per oral administration in mice; format: in vivo
Experimental: (§1) Acute and subacute toxicity of compound 2 was experimentally studied for intragastric administration in white mice. […] The compound was solubilized in saline to be administrated to animals.
Evaluation of subacute toxicity of compound 2 observation time after 14 days per oral administration.
Experimental animals: 14 C57BL/6 male white mice, 7 weeks old, weight 20-22 g.
The following experimental procedure was used: • administration route of the compound: per os; • dosage 50 mg/kg once a day for 14 days; • volume introduced into 0.3 ml/20 g (15 ml/kg); • data recorded: behavior, weight changes, rectal temperature, mortality.

Penicillium notatum = assay: Antifungal agar well diffusion assay; settings: 20 μL water solution in 4 mm well
Experimental: (§4) The well diffusion test was performed using Casitone agar. The inoculum used was prepared using the Candida or Aspergillus strains from a 24-hour culture on Sabouraud dextrose agar, a suspension was made in a sterile saline solution (0.85%). The turbidity of the suspension was adjusted with a spectrophotometer at 530 nm to obtain a final concentration to match that of a 0.5 McFarland standard (0.5-2.5×10^3). 20 mL of Bacto-casitone were melted, cooled to 55° C. and then inoculated with 1 mL of the organism suspension. The inoculated agar was poured into the assay plate (9 cm in diameter) and allowed to cool down on a leveled surface.

M. massiliense 2005-0524 = assay: REMA MIC90, broad spectrum of microorganisms; format: cell-based; settings: Mycobacteroides abscessus, 20050524, M. massiliense 2005-0524, Wild-type, read-out: MIC to Compound 2
M. smegmatis mc2155 = assay: REMA MIC90, broad spectrum of microorganisms; format: cell-based; settings: Mycolicibacterium smegmatis, M. smegmatis mc2155, Wild-type, read-out: MIC to Compound 2
[2] = tested on: M. abscessus clinical isolate n. 10; assay: REMA MIC90, broad spectrum of microorganisms; format: cell-based; settings: Mycobacteroides abscessus, M. abscessus clinical isolate n. 10, resistant to moxifloxacin, doxycycline, read-out: MIC to Compound 2
Experimental: (§2) To determine the in vitro activity of compounds (MIC90) against Mycobacterium abscessus ATCC 19977, the resazurin reduction microplate assays (REMA) is performed. Briefly, serial 2-fold dilutions of drug are prepared in 96-well microtiter plates (Fluoronunc, Thermo Fisher, Waltham, MA, USA) in 100 μL of Middlebrook 7H9 medium (Difco), supplemented with 10% OADC without addition of Tween 80. Then, M. abscessus log-phase cultures were diluted (OD600=0.02) and added in the 96-well microtiter plate. Growth controls containing no compound and sterile controls without inoculum are also included. Also, a compound known to be active against M. abscessus growth is included as positive control. After 1 day of incubation at 37° C., 10 μL of resazurin (0.025% w/v) is added to each well, and bacterial viability is assessed after a further 24 h of incubation using a Fluoroskan™ Microplate Fluorometer (Thermo Fisher Scientific, Waltham, MA, USA; excitation=544 nm, emission=590 nm). Bacterial viability was calculated as a percentage of resazurin turnover in the absence of compound (MIC90). […]. Results are expressed as the average of at least three independent replicates and presented on the following Table 1.
(§3) By using the same procedure, the compound according to Example B (compound 2) was tested on broad spectrum of microorganisms and the corresponding results are presented in the below Table 2.

[3] = tested on: M. abscessus clinical isolate n. 9; assay: REMA MIC90, broad spectrum of microorganisms; format: cell-based; settings: Mycobacteroides abscessus, M. abscessus clinical isolate n. 9, resistant to clarithromycin, moxifloxacin, doxycycline, read-out: MIC to Compound 2
Experimental: as §2, §3

[4] = tested on: M. abscessus clinical isolate n. 7; assay: REMA MIC90, broad spectrum of microorganisms; format: cell-based; settings: Mycobacteroides abscessus, M. abscessus clinical isolate n. 7, resistant to clarithromycin, amikacin, moxifloxacin, doxycycline, read-out: MIC to Compound 2
Experimental: as §2, §3

[5] = tested on: M. avium clinical isolate n. 2; assay: REMA MIC90, broad spectrum of microorganisms; format: cell-based; settings: Mycobacterium avium, M. avium clinical isolate n. 2, resistant to linezolid, read-out: MIC to Compound 2
Experimental: as §2, §3

[6] = tested on: M. abscessus MDR clinical isolate 1; assay: REMA MIC90, broad spectrum of microorganisms; format: cell-based; settings: Mycobacteroides abscessus, M. abscessus MDR clinical isolate 1, resistant to amikacin, clarithromycin, doxycycline, bedaquiline and others, read-out: MIC to Compound 2
Experimental: as §2, §3

[7] = tested on: M. abscessus clinical isolate n. 8; assay: REMA MIC90, broad spectrum of microorganisms; format: cell-based; settings: Mycobacteroides abscessus, M. abscessus clinical isolate n. 8, resistant to moxifloxacin, doxycycline, read-out: MIC to Compound 2
Experimental: as §2, §3

[8] = tested on: MRSA Staphylococcus aureus clinical isolate; assay: REMA MIC90, broad spectrum of microorganisms; format: cell-based; settings: read-out: MIC to Compound 2
Experimental: as §2, §3

[9] = tested on: M. abscessus clinical isolate n. 6; assay: REMA MIC90, broad spectrum of microorganisms; format: cell-based; settings: Mycobacteroides abscessus, M. abscessus clinical isolate n. 6, resistant to clarithromycin, moxifloxacin, doxycycline, linezolid, read-out: MIC to Compound 2
Experimental: as §2, §3

[10] = tested on: M. avium clinical isolate n. 4; assay: REMA MIC90, broad spectrum of microorganisms; format: cell-based; settings: Mycobacterium avium, M. avium clinical isolate n. 4, resistant to linezolid and Moxifloxacin, read-out: MIC to Compound 2
Experimental: as §2, §3

[11] = tested on: M. avium clinical isolate n. 1; assay: REMA MIC90, broad spectrum of microorganisms; format: cell-based; settings: Mycobacterium avium, M. avium clinical isolate n. 1, resistant to linezolid, read-out: MIC to Compound 2
Experimental: as §2, §3

[12] = tested on: M. avium clinical isolate n. 3; assay: REMA MIC90, broad spectrum of microorganisms; format: cell-based; settings: Mycobacterium avium, M. avium clinical isolate n. 3, resistant to linezolid, read-out: MIC to Compound 2
Experimental: as §2, §3

[13] = tested on: M. abscessus MDR clinical isolate 2 (from CF patient); assay: REMA MIC90, broad spectrum of microorganisms; format: cell-based; settings: Mycobacteroides abscessus, resistant to amikacin, amoxicillin, imipenem, linezolid and others, read-out: MIC to Compound 2
Experimental: as §2, §3

M. bovis BCG Pasteur = assay: microbe, parasite or virus in culture; format: cell-based; settings: Mycobacterium tuberculosis variant bovis BCG, read-out: MIC to Compound 2
[14] = tested on: Sporobolomyces salmonicolor; assay: Antifungal agar well diffusion assay; settings: 20 μL water solution in 4 mm well
Experimental: as §4

[15] = Acute toxicity, intragastric administration in mice; format: in vivo, C57BL/6 male white mice; settings: per os, doses lower than 300 mg/kg, 14 days observation
Experimental: as §1
Experimental animals: 35 C57BL/6 male white mice, 7 weeks old, weight 20-22 g. The following experimental procedure was used: • administration route of the compound: per os; • number of doses: […]; • dosage: 100-200-250-300-500-600-750 mg/kg; • volume introduced into 0.3 ml/20 g (15 ml/kg); • data recorded: behavior, weight changes, rectal temperature, mortality.

[16] = mice, per os, 50 mg/kg once a day for 14 days

Compound: CCOC(=O)c1ccc([S-])[n+]([O-])c1.[Na+] [Compound 2, Sodium 5-(ethoxycarbonyl)pyridine-2-thiolate 1-oxide]
- Weight of mice, Experimental group, 28 Jan. 2021, M ± m ([1]; group mean, after 14 days of 50 mg/kg per os daily): 21.13 ± 0.308 gramm
- Weight of mice, Experimental group, 13 Jan. 2021, M ± m ([1]; group mean, start of 50 mg/kg per os daily treatment): 20.71 ± 0.4 gramm
- Weight of individual mice, Experimental group, 28 Jan. 2021 ([1]; individual mice, after 14 days of 50 mg/kg per os daily, 50 mg/kg): 21.1 gramm and 19.5 gramm and 20.9 gramm and 21.7 gramm and 21.5 gramm (2×) and 22.4 gramm and 20.5 gramm
- Weight of individual mice, Experimental group, 13 Jan. 2021 ([1]; individual mice, start of 50 mg/kg per os daily treatment, 50 mg/kg): 20.1 gramm and 22.1 gramm and 19.2 gramm and 19.7 gramm and 20.9 gramm and 20.5 gramm and 22.8 gramm and 20.4 gramm
- Subacute toxicity: general state and behavior [1, 16]: did not cause changes in the general state and behavior of the mice
- Subacute toxicity: mass of mice, experimental vs control group [1, 16]: No significant differences
- Subacute toxicity: animal death ([1]; mouse, in vivo, 50 mg/kg): there were no cases of animal death
- Inhibition Zone of Test Microorganism (Penicillium notatum): 15 mm
- MIC (M. massiliense 2005-0524): 500 µg/mL
- MIC (M. smegmatis mc2155): 1000 µg/mL
- MIC [2]: 500 µg/mL
- MIC [3]: 500 µg/mL
- MIC [4]: 500 µg/mL
- MIC [5]: 500 µg/mL
- MIC [6]: 500 µg/mL
- MIC [7]: 500 µg/mL
- MIC [8]: 8000 µg/mL
- MIC [9]: 500 µg/mL
- MIC [10]: 500 µg/mL
- MIC [11]: 500 µg/mL
- MIC [12]: 500 µg/mL
- MIC [13]: 500 µg/mL
- MIC (M. bovis BCG Pasteur): 62.5 µg/mL
- Inhibition Zone of Test Microorganism [14]: 46 mm
- Acute toxicity: animal death [15]: there were no cases of animal death
- Acute toxicity: general state and behavior [15]: did not cause changes in the general state and behavior of the mice

Reference: US20260191845A1, “PYRIDINE-2-THIOL 1-OXIDE DERIVATIVES AND THEIR USE FOR TREATMENT OF MAMMALIAN INFECTIONS CAUSED BY MYCOBACTERIUM OR FUNGI” (priority 2022, published 2026)
